{
  "source": "paper PMC13128454",
  "about": "“Mutant p53 protein accumulation is selectively targetable by proximity-inducing drugs” (Nature Chemical Biology, 2025)",
  "key": {"[1]": {"test": "CellTiter-Glo cell viability", "type": "cell-based", "conditions": "human, p53_construct Mut, CTG 4 days, read-out: mean (normalized viability)"}, "[2]": {"test_system": "Calu-1 cells stably expressing Halo–p53-R273H (FL)–mCherry–2A–mTagBFP2-V5", "test": "CellTiter-Glo cell viability", "type": "cell-based", "conditions": "CTG 4 days; for replicates (raw CTG signal): p53_construct Mut"}},
  "note": "Several values for one entry are separate records, joined by “and”; a condition that tells them apart may be missing. Equal entries are not always repeated. Where two headings read alike, the source gives them in different places.",
  "data": [
    {"smiles": "CC[C@@H]1C(=O)N(C)c2cnc(Nc3ccc(C(=O)NC4CCN(C)CC4)cc3OC)nc2N1C1CCCC1", "note": "[BI2536]", "values": [
      {"measurement": "viability at 4 days", "setting": "[1]; Compound_conc 0.0488281", "result": 112, "unit": "%"},
      {"measurement": "viability at 4 days", "setting": "[1]; Compound_conc 0.0976562", "result": 115, "unit": "%"},
      {"measurement": "viability at 4 days", "setting": "[1]; Compound_conc 0.195312", "result": 107, "unit": "%"},
      {"measurement": "viability at 4 days", "setting": "[1]; Compound_conc 0.390625", "result": 106, "unit": "%"},
      {"measurement": "viability at 4 days", "setting": "[1]; Compound_conc 0.78125", "result": 119, "unit": "%"},
      {"measurement": "viability at 4 days", "setting": "[1]; Compound_conc 1.5625", "result": 104, "unit": "%"},
      {"measurement": "viability at 4 days", "setting": "[1]; Compound_conc 3.125", "result": 113, "unit": "%"},
      {"measurement": "viability at 4 days", "setting": "[1]; Compound_conc 6.25", "result": 84.3, "unit": "%"},
      {"measurement": "viability at 4 days", "setting": "[1]; Compound_conc 12.5", "result": 70.7, "unit": "%"},
      {"measurement": "viability at 4 days", "setting": "[1]; Compound_conc 25", "result": 62, "unit": "%"},
      {"measurement": "viability at 4 days", "setting": "[1]; Compound_conc 50", "result": 47.3, "unit": "%"},
      {"measurement": "viability at 4 days", "setting": "[1]; Compound_conc 100", "result": 41.4, "unit": "%"},
      {"measurement": "differential proliferation effect", "setting": "[2]; Calu-1 p53 WT versus p53-R273H", "result": "lacked a differential proliferation effect"},
      {"measurement": "replicates (raw CTG signal)", "setting": "[2]; Compound_conc 0.0488281", "result": "197890 and 183273 and 187583 and 162992"},
      {"measurement": "replicates (raw CTG signal)", "setting": "[2]; Compound_conc 0.0976562", "result": "191053 and 161144 and 203266 and 199816"},
      {"measurement": "replicates (raw CTG signal)", "setting": "[2]; Compound_conc 0.195312", "result": "176045 and 169600 and 186049 and 169525"},
      {"measurement": "replicates (raw CTG signal)", "setting": "[2]; Compound_conc 0.390625", "result": "185229 and 162171 and 189977 and 157434"},
      {"measurement": "replicates (raw CTG signal)", "setting": "[2]; Compound_conc 0.78125", "result": "218482 and 178554 and 204635 and 180452"},
      {"measurement": "replicates (raw CTG signal)", "setting": "[2]; Compound_conc 1.5625", "result": "174155 and 148473 and 186714 and 171263"},
      {"measurement": "replicates (raw CTG signal)", "setting": "[2]; Compound_conc 3.125", "result": "194944 and 176651 and 192942 and 172246"},
      {"measurement": "replicates (raw CTG signal)", "setting": "[2]; Compound_conc 6.25", "result": "144484 and 119258 and 155344 and 132872"},
      {"measurement": "replicates (raw CTG signal)", "setting": "[2]; Compound_conc 12.5", "result": "123471 and 113233 and 124855 and 101499"},
      {"measurement": "replicates (raw CTG signal)", "setting": "[2]; Compound_conc 25", "result": "102356 and 92186 and 120326 and 90854"},
      {"measurement": "replicates (raw CTG signal)", "setting": "[2]; Compound_conc 50", "result": "87813 and 79696 and 71081 and 71223"},
      {"measurement": "replicates (raw CTG signal)", "setting": "[2]; Compound_conc 100", "result": "63459 and 73795 and 72267 and 61765"}
    ]}
  ]
}
